Assay results as given in article PMC7156458, “Synthetic biology based construction of biological activity-related library of fungal decalin-containing diterpenoid pyrones” (Nature Communications, 2020).

Biological target: Aβ42 (Homo sapiens, UniProt P05067)
Assay: Th-T (thioflavin-T) assay of Aβ42 aggregation
Format: biochemical

Sequence of Aβ42 (P05067 672-713): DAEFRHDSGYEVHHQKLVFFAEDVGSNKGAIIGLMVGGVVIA

C=C1CC[C@@H]2[C@](C)(CC[C@H]3O[C@H](C=C(C)C)C[C@@]23C)[C@@H]1Cc1c(OC)oc(CO)c(C)c1=O [Compound 20]
Fig. 7a Th-T reading, mean of three wells (column suffix _20, reading M101): 3.25
Fig. 7a Th-T reading, mean of three wells (column suffix _20, reading M102): 3.237
Fig. 7a Th-T reading, mean of three wells (column suffix _20, reading M103): 3.23
Fig. 7a Th-T reading, mean of three wells (column suffix _20, reading M104): 3.246
Fig. 7a Th-T reading, mean of three wells (column suffix _20, reading M105): 3.269
Fig. 7a Th-T reading, mean of three wells (column suffix _20, reading M106): 3.248
Th-T fluorescence, mean of three wells (Fig. 7a) (column suffix _50, measurement M19): 2.199
Th-T fluorescence, mean of three wells (Fig. 7a) (column suffix _50, measurement M20): 2.217
Th-T fluorescence, mean of three wells (Fig. 7a) (column suffix _50, measurement M21): 2.224
Th-T fluorescence, mean of three wells (Fig. 7a) (column suffix _50, measurement M22): 2.216
Th-T fluorescence, mean of three wells (Fig. 7a) (column suffix _50, measurement M23): 2.205
Th-T fluorescence, mean of three wells (Fig. 7a) (column suffix _50, measurement M24): 2.2076
Th-T fluorescence, mean of three wells (Fig. 7a) (column suffix _50, measurement M25): 2.21
Th-T fluorescence, mean of three wells (Fig. 7a) (column suffix _50, measurement M26): 2.22
Th-T fluorescence, mean of three wells (Fig. 7a) (column suffix _50, measurement M27): 2.2221
Th-T fluorescence, mean of three wells (Fig. 7a) (column suffix _50, measurement M28): 2.198
Th-T fluorescence, mean of three wells (Fig. 7a) (column suffix _50, measurement M29): 2.193
Th-T assay signal, mean of three wells (Fig. 7a) (column suffix _50, reading M1): 0.1908
Th-T assay signal, mean of three wells (Fig. 7a) (column suffix _50, reading M2): 0.1991
Th-T assay signal, mean of three wells (Fig. 7a) (column suffix _50, reading M3): 0.2032
Th-T assay signal, mean of three wells (Fig. 7a) (column suffix _50, reading M4): 0.2087
Th-T assay signal, mean of three wells (Fig. 7a) (column suffix _50, reading M5): 0.2172
Th-T assay signal, mean of three wells (Fig. 7a) (column suffix _50, reading M6): 0.2431
Th-T assay signal, mean of three wells (Fig. 7a) (column suffix _50, reading M7): 0.2722
Th-T assay signal, mean of three wells (Fig. 7a) (column suffix _50, reading M8): 0.3931
Th-T assay signal, mean of three wells (Fig. 7a) (column suffix _50, reading M9): 0.6726
Th-T assay signal, mean of three wells (Fig. 7a) (column suffix _50, reading M10): 1.1256
Th-T assay signal, mean of three wells (Fig. 7a) (column suffix _50, reading M11): 1.605
Th-T assay signal, mean of three wells (Fig. 7a) (column suffix _50, reading M12): 1.883
Th-T assay signal, mean of three wells (Fig. 7a) (column suffix _50, reading M13): 2.0174
Th-T assay signal, mean of three wells (Fig. 7a) (column suffix _50, reading M14): 2.101
Th-T assay signal, mean of three wells (Fig. 7a) (column suffix _50, reading M15): 2.147
Th-T assay signal, mean of three wells (Fig. 7a) (column suffix _50, reading M16): 2.173
Th-T assay signal, mean of three wells (Fig. 7a) (column suffix _50, reading M17): 2.183
Th-T assay signal, mean of three wells (Fig. 7a) (column suffix _50, reading M18): 2.192
Fig. 7a Th-T reading, mean of three wells (column suffix _50, reading M85): 2.067
Fig. 7a Th-T reading, mean of three wells (column suffix _50, reading M86): 2.077
Fig. 7a Th-T reading, mean of three wells (column suffix _50, reading M87): 2.082
Fig. 7a Th-T reading, mean of three wells (column suffix _50, reading M88): 2.092
Fig. 7a Th-T reading, mean of three wells (column suffix _50, reading M89): 2.095
Fig. 7a Th-T reading, mean of three wells (column suffix _50, reading M90): 2.096
Fig. 7a Th-T reading, mean of three wells (column suffix _50, reading M91): 2.085
Fig. 7a Th-T reading, mean of three wells (column suffix _50, reading M92): 2.089
Fig. 7a Th-T reading, mean of three wells (column suffix _50, reading M93): 2.088
Fig. 7a Th-T reading, mean of three wells (column suffix _50, reading M94): 2.094
Fig. 7a Th-T reading, mean of three wells (column suffix _50, reading M95): 2.0955
Fig. 7a Th-T reading, mean of three wells (column suffix _50, reading M96): 2.087
Fig. 7a Th-T reading, mean of three wells (column suffix _50, reading M97): 2.084
Fig. 7a Th-T reading, mean of three wells (column suffix _50, reading M98): 2.09
Fig. 7a Th-T reading, mean of three wells (column suffix _50, reading M99): 2.099
Fig. 7a Th-T reading, mean of three wells (column suffix _50, reading M100): 2.117
Fig. 7a Th-T reading, mean of three wells (column suffix _50, reading M101): 2.093
Fig. 7a Th-T reading, mean of three wells (column suffix _50, reading M102): 2.09
Fig. 7a Th-T reading, mean of three wells (column suffix _50, reading M103): 2.088
Fig. 7a Th-T reading, mean of three wells (column suffix _50, reading M104): 2.099
Fig. 7a Th-T reading, mean of three wells (column suffix _50, reading M105): 2.107
Fig. 7a Th-T reading, mean of three wells (column suffix _50, reading M106): 2.096
Th-T fluorescence, mean of three wells (compound at 10, reading M41 of time course): 3.473
Th-T fluorescence, mean of three wells (compound at 10, reading M42 of time course): 3.463
Th-T fluorescence, mean of three wells (compound at 10, reading M43 of time course): 3.47
Th-T fluorescence, mean of three wells (compound at 10, reading M44 of time course): 3.466
Th-T fluorescence, mean of three wells (compound at 10, reading M45 of time course): 3.48
Th-T fluorescence, mean of three wells (compound at 10, reading M46 of time course): 3.474
Th-T fluorescence, mean of three wells (compound at 10, reading M47 of time course): 3.473
Th-T fluorescence, mean of three wells (compound at 10, reading M48 of time course): 3.454
Th-T fluorescence, mean of three wells (compound at 10, reading M49 of time course): 3.4597
Th-T fluorescence, mean of three wells (compound at 10, reading M50 of time course): 3.479
Th-T fluorescence, mean of three wells (compound at 10, reading M51 of time course): 3.451
Th-T fluorescence, mean of three wells (compound at 10, reading M52 of time course): 3.467
Th-T fluorescence, mean of three wells (compound at 10, reading M53 of time course): 3.449
Th-T fluorescence, mean of three wells (compound at 10, reading M54 of time course): 3.468
Th-T fluorescence, mean of three wells (compound at 10, reading M55 of time course): 3.479
Th-T fluorescence, mean of three wells (compound at 10, reading M56 of time course): 3.4836
Th-T fluorescence, mean of three wells (compound at 10, reading M57 of time course): 3.456
Th-T fluorescence, mean of three wells (compound at 10, reading M58 of time course): 3.464
Th-T fluorescence, mean of three wells (compound at 10, reading M59 of time course): 3.461
Th-T fluorescence, mean of three wells (compound at 10, reading M60 of time course): 3.452
Th-T fluorescence, mean of three wells (compound at 10, reading M61 of time course): 3.461
Th-T fluorescence, mean of three wells (compound at 10, reading M62 of time course): 3.452
Th-T fluorescence, mean of three wells (compound at 20, reading M41 of time course): 3.421
Th-T fluorescence, mean of three wells (compound at 20, reading M42 of time course): 3.4495
Th-T fluorescence, mean of three wells (compound at 20, reading M43 of time course): 3.4108
Th-T fluorescence, mean of three wells (compound at 20, reading M44 of time course): 3.412
Th-T fluorescence, mean of three wells (compound at 20, reading M45 of time course): 3.402
Th-T fluorescence, mean of three wells (compound at 20, reading M46 of time course): 3.446
Th-T fluorescence, mean of three wells (compound at 20, reading M47 of time course): 3.447
Th-T fluorescence, mean of three wells (compound at 20, reading M48 of time course): 3.449
Th-T fluorescence, mean of three wells (compound at 20, reading M49 of time course): 3.413
Th-T fluorescence, mean of three wells (compound at 20, reading M50 of time course): 3.443
Th-T fluorescence, mean of three wells (compound at 20, reading M51 of time course): 3.447
Th-T fluorescence, mean of three wells (compound at 20, reading M52 of time course): 3.466
Th-T fluorescence, mean of three wells (compound at 20, reading M53 of time course): 3.442
Th-T fluorescence, mean of three wells (compound at 20, reading M54 of time course): 3.43
Th-T fluorescence, mean of three wells (compound at 20, reading M55 of time course): 3.418
Th-T fluorescence, mean of three wells (compound at 20, reading M56 of time course): 3.449
Th-T fluorescence, mean of three wells (compound at 20, reading M57 of time course): 3.4659
Th-T fluorescence, mean of three wells (compound at 20, reading M58 of time course): 3.449
Th-T fluorescence, mean of three wells (compound at 20, reading M59 of time course): 3.427
Th-T fluorescence, mean of three wells (compound at 20, reading M60 of time course): 3.432
Th-T fluorescence, mean of three wells (compound at 20, reading M61 of time course): 3.433
Th-T fluorescence, mean of three wells (compound at 20, reading M62 of time course): 3.454
Th-T fluorescence, mean of three wells (compound at 50, reading M41 of time course): 2.136
Th-T fluorescence, mean of three wells (compound at 50, reading M42 of time course): 2.134
Th-T fluorescence, mean of three wells (compound at 50, reading M43 of time course): 2.091
Th-T fluorescence, mean of three wells (compound at 50, reading M44 of time course): 2.118
Th-T fluorescence, mean of three wells (compound at 50, reading M45 of time course): 2.11
Th-T fluorescence, mean of three wells (compound at 50, reading M46 of time course): 2.107
Th-T fluorescence, mean of three wells (compound at 50, reading M47 of time course): 2.113
Th-T fluorescence, mean of three wells (compound at 50, reading M48 of time course): 2.125
Th-T fluorescence, mean of three wells (compound at 50, reading M49 of time course): 2.092
Th-T fluorescence, mean of three wells (compound at 50, reading M50 of time course): 2.091
Th-T fluorescence, mean of three wells (compound at 50, reading M51 of time course): 2.089
Th-T fluorescence, mean of three wells (compound at 50, reading M52 of time course): 2.103
Th-T fluorescence, mean of three wells (compound at 50, reading M53 of time course): 2.105
